# Measurements from US12691101B2, “Compound and method for preventing or treating of respiratory diseases comprising the same as an active ingredient” (YONSEI UNIVERSITY, UNIVERSITY - INDUSTRY FOUNDATION (UIF), priority 2019, dated 2026).
# Target: T1, human wild-type (WT)-pendrin (Homo sapiens, UniProt O43511)
# T1 construct: expressed in transfected cells
# T1 sequence (O43511 1-780): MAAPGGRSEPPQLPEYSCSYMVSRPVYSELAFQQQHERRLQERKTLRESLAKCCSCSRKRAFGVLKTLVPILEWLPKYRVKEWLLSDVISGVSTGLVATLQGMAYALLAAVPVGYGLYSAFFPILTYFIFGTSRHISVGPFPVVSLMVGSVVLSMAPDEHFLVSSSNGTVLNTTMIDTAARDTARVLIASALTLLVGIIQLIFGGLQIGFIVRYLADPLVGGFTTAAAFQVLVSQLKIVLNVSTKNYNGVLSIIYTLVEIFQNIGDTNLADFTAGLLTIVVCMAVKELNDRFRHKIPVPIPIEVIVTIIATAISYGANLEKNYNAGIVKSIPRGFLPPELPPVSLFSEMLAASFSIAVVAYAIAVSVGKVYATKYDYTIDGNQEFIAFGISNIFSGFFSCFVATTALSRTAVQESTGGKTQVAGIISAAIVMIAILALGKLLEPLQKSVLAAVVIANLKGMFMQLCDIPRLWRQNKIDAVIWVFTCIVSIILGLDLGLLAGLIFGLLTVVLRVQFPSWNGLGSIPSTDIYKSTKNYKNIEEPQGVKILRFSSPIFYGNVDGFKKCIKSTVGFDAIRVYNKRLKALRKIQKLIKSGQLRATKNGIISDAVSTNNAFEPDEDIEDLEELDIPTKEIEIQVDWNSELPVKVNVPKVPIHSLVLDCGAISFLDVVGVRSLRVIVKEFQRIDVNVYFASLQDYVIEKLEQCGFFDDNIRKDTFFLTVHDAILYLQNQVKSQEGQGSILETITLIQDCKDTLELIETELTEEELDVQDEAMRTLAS
# Experiment: Pendrin-mediated Cl^−/I^− exchange activity, YFP fluorescence in CHO-K1 cells
# Type: cell-based
# Details: not given
# Description: Chinese hamster ovary (CHO)-K1 cells were maintained in a DMEM medium containing 10% fetal bovine serum (FBS), 100 units/ml penicillin and 100 100 μg/ml streptomycin. CHO-K1 cells were stably transfected with pcDNA3.1 encoding halide sensor YFP-H148Q/I152L/F46L and human wild-type (WT)-pendrin. For distribution of primary culture of human nasal cavity epithelium (HNE) cells, passage-2 cells were seeded into transwell-transparent culture inserts with a pore size of 0.45 μm (Costar Co., Cambridge, MA) at a density of 2×10^5 cells/cm^2. The cells were maintained in a 1:1 mixture of Dulbecco's modified Eagle's medium (Lonza, Walkersville, MD) and bronchial epithelial growth medium (Lonza) supplemented with the following growth factors according to the manufacturer's instructions. After immersing the cells for the first 7 days, they were exposed to the apical air interface for the remainder of the culture period. After establishment of the air-liquid interface, the cells were used between 14 and 21 days. At all stages of culture, the cells were maintained at 37° C. under 5% CO2 in an air incubator.
# CHO-K1 cells expressing human WT pendrin and YFP-F46L/H148Q/I152L were plated on a 96-well microplate at a density of 2×10^4 cells per well and cultured for 48 hours. Each well of the cell cultured 96-well plate was washed with PBS of 200 μL twice and was filled with HEPES buffer solution of 50 μL, respectively. […] After culturing at 37° C. for 10 minutes, the 96-well plate was positioned on FLUOstar Omega microplate reader (BMG Labtech, Ortenberg, Germany) for fluorescence analysis. By continuously (400 ms per point) recording fluorescence for 1 second (base line), each well was individually analyzed for pendrin-mediated I^− inflow, and then at 1 second, 50 μL of NaI-substituted HEPES buffer solution (NaI replacing NaCl) was added using a liquid injector and the YFP fluorescence was recorded for 5 seconds. The initial iodide inflow rate was determined from the initial slope of fluorescence by nonlinear regression, after injection the iodide (See FIG. 1).
# For measurement of Cl^−/I^− exchange activity, YFP fluorescence was measured in pendrin and halide sensor YFP expressing CHO-K1 cells. Each well of the cell cultured 96-well plate was washed with PBS of 200 μL twice, and was filled with HEPES buffer solution (140 mM NaCl, 5 mM KCl, 1 mM MgCl2, 1 mM CaCl2, 10 mM glucose and 10 mM HEPES (pH 7.4)), respectively. […] After culturing at 37° C. for 10 minutes, the 96-well plate was positioned on FLUOstar Omega microplate reader (BMG Labtech, Ortenberg, Germany) for fluorescence analysis.
# By continuously (400 ms per point) recording fluorescence for 1 second (base line), each well was individually analyzed for pendrin-mediated I^− inflow, and then at 1 second, 50 μL of NaI-substituted HEPES buffer solution (140 mM NaI, 5 mM KCl, 1 mM MgCl2, 1 mM CaCl2, 10 mM glucose and 10 mM HEPES (pH 7.4)) was added using a liquid injector and the YFP fluorescence was recorded for 5 seconds. The initial iodide inflow rate was determined from the initial slope of fluorescence by nonlinear regression, after injection the iodide.
row,efficacy as pendrin inhibitor compared with F10,SMILES
1,lower efficacy than F10,"CC(C)(C)c1ccc(C(=O)NC(=Cc2ccc[nH]2)C(=O)O)cc1 [G7, 2-(4-(tert-butyl)benzamido)-3-(1H-pyrrol-2-yl)acrylate]"

# Same assay, conditions: CHO-K1, 30 μM; read-out: Pendrin inhibitory activity at 30 μM (%)
row,SMILES,inhibition at 30 µM [%]
1,"CCCCOc1ccc(C2=NC(=Cc3ccc[nH]3)C(=O)O2)cc1 [F138, 4-((1H-pyrrol-2-yl)methylene)-2-(4-butoxyphenyl)oxazol-5 (4H)-one]",2.7
2,"CC(C)Cc1ccc(C(=O)NC(=Cc2ccc[nH]2)C(=O)O)cc1 [G26, 2-(4-Isobutylbenzamido)-3-(1H-pyrrol-2-yl)acrylate]",85.6
3,"Cc1ccc(C2=NC(=Cc3cn(-c4ccccc4)nc3-c3ccccc3)C(=O)O2)cc1 [F83, 4-((1,3-Diphenyl-1H-pyrazol-4-yl)methylene)-2-(p-tolyl)oxazol-5(4H)-one]",2.4
4,"CC(C)c1ccc(C2=NC(=Cc3ccco3)C(=O)O2)cc1 [F49, 4-(Furan-2-ylmethylene)-2-(4-isopropylphenyl)oxazol-5 (4H)-one]",89.1
5,"CC(=O)n1cc(C=C2N=C(c3ccc(Br)cc3)OC2=O)c2ccccc21 [F72, 4-((1-Acetyl-1H-indol-3-yl)methylene)-2-(4-bromophenyl)oxazol-5(4H)-one]",2.8
6,"CC(=O)Nc1ccc(C2=NC(=Cc3cc(Br)cs3)C(=O)O2)cc1 [F106, N-(4-(4-((4-bromothiophen-2-yl)methylene)-5-oxo-4,5-dihydrooxazol-2-yl)phenyl)acetamide]",3.3
7,"O=C1OC(c2ccccc2OC(F)F)=NC1=Cc1ccc(Br)s1 [F121, 4-((5-Bromothiophen-2-yl)methylene)-2-(2-(difluoromethoxy)phenyl)oxazol-5(4H)-one]",3.4
8,"CC(C)(C)c1ccc(C2=NC(=Cc3cccnc3)C(=O)O2)cc1 [F40, 2-(4-(tert-butyl)phenyl)-4-(pyridin-3-ylmethylene)oxazol-5(4H)-one]",92.3
9,"CC(C)(C)c1ccc(C(=O)Oc2ccc(C=C3N=C(c4ccccc4Cl)OC3=O)cc2)cc1 [F67, 4-((2-(2-Chlorophenyl)-5-oxooxazol-4(5H)-ylidene)methyl)phenyl4-(tert-butyl)benzoate]",3.2
10,"O=C1OC(c2ccc(C(F)(F)F)cc2)=NC1=Cc1ccco1 [F48, 4-(Furan-2-ylmethylene)-2-(4-(trifluoromethyl)phenyl)oxazol-5(4H)-one]",2.4
11,"CCN(CC)S(=O)(=O)c1ccc(C2=N/C(=C3\C=CC=CN3C)C(=O)O2)cc1 [F127, N,N-diethyl-4-(4-(1-methylpyridin-2(1H)-ylidene)-5-oxo-4,5-dihydrooxazol-2-yl)benzenesulfonamide]",3.6
12,"CCCCc1ccc(C(=O)NC(=Cc2ccc[nH]2)C(=O)O)cc1 [G22, 2-(4-Butylbenzamido)-3-(1H-pyrrol-2-yl)acrylate]",89.2
13,"O=C1OC(c2ccc(C(F)(F)F)cc2)=NC1=Cc1ccsc1 [F18, 4-(Thiophen-3-ylmethylene)-2-(4-(trifluoromethyl)phenyl)oxazol-5(4H)-one]",3.4
14,"Cn1cc(C=C(NC(=O)c2ccc(C(C)(C)C)cc2)C(=O)O)cn1 [G10, 2-(4-(tert-butyl)benzamido)-3-(1-methyl-1H-pyrazol-4-yl)acrylate]",4.3
15,"CC(C)(C)c1ccc(C(=O)NC(=Cc2ccc[nH]2)C(=O)O)cc1 [G7, 2-(4-(tert-butyl)benzamido)-3-(1H-pyrrol-2-yl)acrylate]",82.1
16,"COc1ccc(C2=NC(=C3C=C(c4cccs4)Oc4ccccc43)C(=O)O2)cc1 [F75, 2-(4-Methoxyphenyl)-4-(2-(thiophen-2-yl)-4H-chromen-4-ylidene)oxazol-5 (4H)-one]",2.3
17,"CCCCOc1ccc(C(=O)NC(=Cc2ccc[nH]2)C(=O)O)cc1 [G41, 2-(4-Butoxybenzamido)-3-(1H-pyrrol-2-yl)acrylate]",25.1
18,"O=C1OC(c2ccccc2OC(F)F)=NC1=C/C=C/c1ccco1 [F135, 2-(2-(difluoromethoxy)phenyl)-4-((E)-3-(furan-2-yl)allylidene)oxazol-5 (4H)-one]",2.8
19,"CCCc1ccc(C(=O)NC(=Cc2ccco2)C(=O)O)cc1 [G34, 3-(Furan-2-yl)-2-(4-propylbenzamido)acrylate]",38.2
20,"CCCCOc1ccc(C2=NC(=Cc3cccs3)C(=O)O2)cc1 [F142, 2-(4-Butoxyphenyl)-4-(thiophen-2-ylmethylene)oxazol-5 (4H)-one]",2.4

# Now from value to compound:
row,inhibition at 30 µM [%],SMILES
1,2.4,"O=C1OC(c2ccc(OCc3ccccc3)cc2)=NC1=Cc1cccs1 [F109, 2-(4-(Benzyloxy)phenyl)-4-(thiophen-2-ylmethylene)oxazol-5(4H)-one]"
2,2.6,"CN(C)S(=O)(=O)c1cccc(C2=NC(=Cc3cccs3)C(=O)O2)c1 [F116, N,N-dimethyl-3-(5-oxo-4-(thiophen-2-ylmethylene)-4,5-dihydrooxazol-2-yl) benzenesulfonamide]"
3,3.1,"CCN(CC)S(=O)(=O)c1cccc(C2=NC(=Cc3cccs3)C(=O)O2)c1 [F112, N,N-diethyl-3-(5-oxo-4-(thiophen-2-ylmethylene)-4,5-dihydrooxazol-2-yl)benzene sulfonamide]"
4,2.4,"O=C1OC(c2ccc(Cl)cc2)=NC1=Cc1cccs1 [F88, 2-(4-Chlorophenyl)-4-(thiophen-2-ylmethylene)oxazol-5(4H)-one]"
5,3.1,"CCCCc1ccc(C2=NC(=Cc3cccs3)C(=O)O2)cc1 [F53, 2-(4-Butylphenyl)-4-(thiophen-2-ylmethylene)oxazol-5(4H)-one]"
6,3.8,"O=C1OC(c2ccc(OC(F)F)cc2)=NC1=Cc1cccs1 [F55, 2-(4-(difluoromethoxy)phenyl)-4-(thiophen-2-ylmethylene)oxazol-5(4H)-one]"
7,88.7,"CC(=O)Nc1ccc(C2=NC(=Cc3cccs3)C(=O)O2)cc1 [F33, N-(4-(5-oxo-4-(thiophen-2-ylmethylene)-4,5-dihydrooxazol-2-yl)phenyl)acetamide]"
8,3.8,"O=C1OC(c2ccc(Oc3ccccc3)cc2)=NC1=Cc1cccs1 [F95, 2-(4-Phenoxyphenyl)-4-(thiophen-2-ylmethylene)oxazol-5(4H)-one]"
9,3.5,"COc1cccc(C2=NC(=Cc3cccs3)C(=O)O2)c1 [F104, 2-(3-Methoxyphenyl)-4-(thiophen-2-ylmethylene)oxazol-5(4H)-one]"
10,2.9,"O=C1OC(c2ccc3c(c2)OCO3)=NC1=Cc1cccs1 [F97, 2-(Benzo[d][1,3]dioxoyl-5-yl)-4-(thiophen-2-ylmethylene)oxazol-5(4H)-one]"

# Same assay, conditions: CHO-K1; read-out: Pendrin inhibitory activity at 30 μM (%)
row,SMILES,inhibition at 30 µM [%]
1,"CC(=O)Nc1ccc(C2=NC(=Cc3ccc(N(C)CCCl)cc3)C(=O)O2)cc1 [F86, N-(4-(4-(4-((2-chloroethyl)(methyl)amino)benzylidene)-5-oxo-4,5-dihydrooxazol-2-yl)phenyl)acetamide]",3.3

# Same assay, conditions: compounds showing pendrin inhibitory activity of 50% or more at 30 μM; read-out: IC50
row,IC50 [µM],SMILES
1,10.2 ± 1.38,"CC(C)Cc1ccc(C(=O)NC(=Cc2ccc[nH]2)C(=O)O)cc1 [G26, 2-(4-Isobutylbenzamido)-3-(1H-pyrrol-2-yl)acrylate]"
2,3.9 ± 0.36,"CC(C)c1ccc(C2=NC(=Cc3ccco3)C(=O)O2)cc1 [F49, 4-(Furan-2-ylmethylene)-2-(4-isopropylphenyl)oxazol-5 (4H)-one]"
3,9.3 ± 0.68,"CC(=O)Nc1ccc(C2=NC(=Cc3cccs3)C(=O)O2)cc1 [F33, N-(4-(5-oxo-4-(thiophen-2-ylmethylene)-4,5-dihydrooxazol-2-yl)phenyl)acetamide]"
4,5.3 ± 0.58,"CCCCc1ccc(C(=O)NC(=Cc2ccc[nH]2)C(=O)O)cc1 [G22, 2-(4-Butylbenzamido)-3-(1H-pyrrol-2-yl)acrylate]"
5,6.8 ± 0.66,"CC(C)(C)c1ccc(C(=O)NC(=Cc2ccc[nH]2)C(=O)O)cc1 [G7, 2-(4-(tert-butyl)benzamido)-3-(1H-pyrrol-2-yl)acrylate]"
